These results are taken from ChEMBL document CHEMBL3232823, “Non-imidazole histamine H3 receptor ligands incorporating antiepileptic moieties” (Eur J Med Chem, 2014).

Molecules are shown by their SMILES. The source made the active and inactive calls. The calls are words filed in the database; no cut-off is given here.

Data set [1] addresses Histamine H3 receptor (Homo sapiens, UniProt Q9Y5N1). The data set can be described thus: Displacement of [3H]N-alpha-methylhistamine from human H3 receptor expressed in HEK-293 cell membrane after 90 mins by liquid scintillation counting analysis. It is filed as cell membranes, HEK293.
For data set [2], the target named is Histamine H4 receptor (Homo sapiens, UniProt Q9H3N8). The data set can be described thus: Displacement of [3H]histamine from human H4 receptor expressed in Sf9 cell membrane co-transfected with Galphai2 and Gbeta1gamma2 after 60 mins by liquid scintillation counting analysis. Background: In a radioligand displacement assay an active substance lowers the binding of a labelled ligand.
Histamine H4 receptor, sequence (Q9H3N8 whole entry): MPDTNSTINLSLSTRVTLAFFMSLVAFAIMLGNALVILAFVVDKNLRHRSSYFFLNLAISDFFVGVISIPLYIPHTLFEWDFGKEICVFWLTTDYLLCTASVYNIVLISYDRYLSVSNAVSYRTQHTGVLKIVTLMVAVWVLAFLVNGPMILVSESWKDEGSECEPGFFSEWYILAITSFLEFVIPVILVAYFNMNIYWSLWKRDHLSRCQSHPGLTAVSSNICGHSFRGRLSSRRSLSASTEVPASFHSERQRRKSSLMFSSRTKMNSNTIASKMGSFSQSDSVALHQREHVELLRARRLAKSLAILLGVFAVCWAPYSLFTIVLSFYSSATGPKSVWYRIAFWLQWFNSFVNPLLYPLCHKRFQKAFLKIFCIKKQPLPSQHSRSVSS

Data set [3] has as its target Histamine H1 receptor (Homo sapiens, UniProt P35367). Description: Displacement of [3H]pyrilamine from human H1 receptor expressed in CHO cell membrane after 120 mins by liquid scintillation counting analysis. It is filed as cell membranes.
Data set [4] concerns Rattus norvegicus. Description: Anticonvulsant activity in Wistar rat assessed as protection against maximal electroshock-induced convulsions at 1 to 10 mg/kg, ip administered 30 mins before MES challenge. Format: functional, organism-based. (In general: Protection in the maximal electroshock model is a classic sign of anticonvulsant action.)
The test system of data set [5] is Rattus norvegicus. The data set can be described thus: Proconvulsant activity in maximal electroshock-induced convulsions Wistar rat model assessed as tonic hindlimb extensions at 1 to 10 mg/kg, ip administered 30 mins before MES challenge. It is filed as ADME, organism-based. Details: dose 1-10 mg/kg, route intraperitoneal. The following applies: in vivo, 0.5 h.

Data set [6] deals with Rattus norvegicus. The data set can be described thus: Anticonvulsant activity against PTZ-kindled convulsion Wistar rat model assessed as reduction in convulsions at 1 to 10 mg/kg, ip administered 30 mins before PTZ challenge measured for 10 to 30 mins. Format: functional, organism-based.
Data set [7] deals with Rattus norvegicus. Description: Anticonvulsant activity in Wistar rat assessed as protection against maximal electroshock-induced convulsions at 10 mg/kg, ip administered 30 mins before MES challenge. It is filed as functional, organism-based. Details: dose 10 mg/kg.
Data set [8] concerns Rattus norvegicus. The data set can be described thus: Anticonvulsant activity in Wistar rat assessed as protection against maximal electroshock-induced convulsions at 1 mg/kg, ip administered 30 mins before MES challenge. Format: functional, organism-based. Details: dose 1 mg/kg.
Data set [9] relates to Rattus norvegicus. Description: Anticonvulsant activity against PTZ-kindled convulsion Wistar rat model assessed as reduction in convulsions at 10 mg/kg, ip administered 30 mins before PTZ challenge measured for 10 to 30 mins. Format: functional, organism-based. Details: dose 10 mg/kg.
For data set [10], the system named is Rattus norvegicus. Description: Anticonvulsant activity against PTZ-kindled convulsion Wistar rat model assessed as reduction in convulsions at 1 mg/kg, ip administered 30 mins before PTZ challenge measured for 10 to 30 mins. Format: functional, organism-based. On the set-up: dose 1 mg/kg.
The test system of data set [11] is Rattus norvegicus. Description: Anticonvulsant activity against PTZ-kindled convulsion Wistar rat model assessed as prolongation of latency time to myoclonic convulsions at 10 mg/kg, ip administered 30 mins before PTZ challenge. It is filed as functional, organism-based. Details: dose 10 mg/kg.
The test system of data set [12] is Rattus norvegicus. Description: Anticonvulsant activity against PTZ-kindled convulsion Wistar rat model assessed as decrease in total convulsion time at 10 mg/kg, ip administered 30 mins before PTZ challenge. It is filed as functional, organism-based. On the set-up: dose 10 mg/kg.
Data set [13] relates to Rattus norvegicus. Description: Anticonvulsant activity against PTZ-kindled convulsion Wistar rat model assessed as increase in latency time to clonic-tonic convulsions at 10 mg/kg, ip administered 30 mins before PTZ challenge. Format: functional, organism-based. On the set-up: dose 10 mg/kg.
Data set [14] has as its system Rattus norvegicus. The data set can be described thus: Anticonvulsant activity against PTZ-kindled convulsion Wistar rat model assessed as latency for the first atypical behaviours at 10 mg/kg, ip administered 30 mins before PTZ challenge. On the set-up: dose 10 mg/kg. It is filed as functional, organism-based.

Histamine H1 receptor, sequence (P35367 whole entry): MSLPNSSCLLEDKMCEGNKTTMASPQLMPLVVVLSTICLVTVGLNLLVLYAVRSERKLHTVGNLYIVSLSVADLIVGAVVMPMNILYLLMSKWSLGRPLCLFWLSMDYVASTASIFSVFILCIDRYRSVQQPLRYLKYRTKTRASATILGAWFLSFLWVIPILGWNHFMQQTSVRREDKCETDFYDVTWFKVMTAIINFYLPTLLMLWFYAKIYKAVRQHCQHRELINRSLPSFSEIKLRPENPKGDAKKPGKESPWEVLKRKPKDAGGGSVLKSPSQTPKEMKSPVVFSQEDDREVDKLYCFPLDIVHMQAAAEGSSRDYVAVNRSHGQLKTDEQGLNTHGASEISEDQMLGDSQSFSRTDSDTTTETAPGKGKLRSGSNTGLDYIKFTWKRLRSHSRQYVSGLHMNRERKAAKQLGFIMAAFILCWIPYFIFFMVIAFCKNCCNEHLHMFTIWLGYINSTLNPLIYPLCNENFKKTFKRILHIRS
Histamine H3 receptor, sequence (Q9Y5N1 whole entry): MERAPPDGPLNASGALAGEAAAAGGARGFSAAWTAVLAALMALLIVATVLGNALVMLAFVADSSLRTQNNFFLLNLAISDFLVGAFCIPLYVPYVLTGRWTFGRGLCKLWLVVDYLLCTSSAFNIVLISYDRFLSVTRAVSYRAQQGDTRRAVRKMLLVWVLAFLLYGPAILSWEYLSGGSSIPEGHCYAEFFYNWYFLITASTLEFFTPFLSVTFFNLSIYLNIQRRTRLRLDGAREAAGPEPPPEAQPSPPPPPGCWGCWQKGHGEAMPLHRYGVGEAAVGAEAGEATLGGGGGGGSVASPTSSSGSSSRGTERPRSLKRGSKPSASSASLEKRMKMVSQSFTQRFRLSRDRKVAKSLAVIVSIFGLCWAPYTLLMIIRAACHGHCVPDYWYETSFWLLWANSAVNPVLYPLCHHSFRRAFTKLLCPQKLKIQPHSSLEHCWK

In general, Ki refers to a dissociation constant, usually derived from enzyme kinetics or from competition with a known ligand. Read a low Ki as a stronger hold on the target. For the compound `O=C1NC(c2ccccc2)(c2ccccc2)C(=O)N1Cc1ccc(OCCCN2CCCCC2)cc1`, the Ki is 0.0759 µM in [1], 9.33 µM in data set [2] and 2.24 µM in data set [3]. For the same compound, the result in [4] was inactive. Also, the Activity entry in data set [5] is recorded as “Toxic”. Further, the inhibition result in data set [6] is “inactive”.

`S=C(NC1CCCCC1)N1CCC(c2cnc[nH]2)CC1` [THIOPERAMIDE] gave a Ki in data set [3] greater than 10 µM.

Take `Cc1nnc(C)n1-c1ccc(OCCCN2CCCCC2)cc1`: the figures for the Ki in [1], in data set [2] and in data set [3] were 0.000933 µM, 20.4 µM and 29.5 µM, respectively. Besides, the result in data set [4] was inactive.

With `C[C@H](NCc1ccc(OCCCN2CCCCC2)cc1)C(N)=O`, the Ki in [1] is 0.0427 µM; in data set [2], 331 µM; in [3], 31.6 µM. Also, in [4], the outcome was inactive.

On to `Clc1ccc(CCCOCCCN2CCCCC2)cc1` [PITOLISANT], for which, in data set [2], the inhibitory constant (Ki) was greater than 10 µM. Also, in [7], the outcome was Active.

For the compound `O=C1NC(c2ccccc2)(c2ccccc2)C(=O)N1CCCN1CCCCC1`, the inhibitory constant (Ki) is 0.562 µM in data set [1], 490 µM in data set [2] and 6.17 µM in [3]. Besides, the result in data set [8], in [11], in data set [12] and in data set [13] was Active. Further, in data set [9], the inhibition entry was “Active”. The inhibition result in data set [10] was “inactive”. Moreover, the result in data set [14] was inactive.

In the case of `O=C1NC(=O)C(c2ccccc2)(c2ccccc2)N1`, in data set [7], the outcome was Active.

Take `Cc1nnc(-c2cccnc2)n1-c1ccc(OCCCN2CCCCC2)cc1`: the Ki was 0.00024 µM in data set [1], 1410 µM in data set [2] and 10.5 µM in [3]. Moreover, the result in data set [4] was inactive.
